Reference: the supplement of paper PMC6045584
± gives the standard deviation of the averaged measurements.

Tests used:
[1] = compound: CC(=O)c1c(C)c2cnc(Nc3ccc(N4CCNCC4)cn3)nc2n(C2CCCC2)c1=O; test: area under dose-response curve of surviving fraction (unscaled, Aref=0) (surviving fraction x log10(nM)); higher = more resistant; settings: exposure time: 5 days; dose range 0.5-1000 nM
Procedure, shortened: (§1)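 Tumour cell lines in 384-well plates were exposed for five days to eight inhibitor concentrations from 0.5 to 1000 nM. Viability was read by CellTiter-Glo luminescence, normalised to DMSO-only wells, in three screens per line. Dose-response survival curves were fitted to surviving fractions by 3-parameter logistic regression in the drc R package. Area under the curve is the unscaled activity area (Aref = 0) over log10 dose.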

[2] = compound: CC(=O)NCC(=O)N1[C@@H]2CC[C@H]1c1ccc(Nc3ncc(C(F)(F)F)c(NC4CCC4)n3)cc12; test: as above; settings: exposure time: 5 days; dose range 0.5-1000 nM
Procedure, shortened: as §1

PACLITAXEL [3] = compound: T1, CC(=O)O[C@H]1C(=O)[C@@]2(C)[C@H]([C@H](OC(=O)c3ccccc3)[C@]3(O)C[C@H](OC(=O)[C@H](O)[C@@H](NC(=O)c4ccccc4)c4ccccc4)C(C)=C1C3(C)C)[C@]1(OC(C)=O)CO[C@@H]1C[C@@H]2O [PACLITAXEL]; test: as above; settings: exposure time: 5 days; dose range 0.5-1000 nM
Procedure, shortened: as §1

GEFITINIB = compound: COc1cc2ncnc(Nc3ccc(F)c(Cl)c3)c2cc1OCCCN1CCOCC1 [GEFITINIB]; test: surviving fraction relative to DMSO-only wells; higher = less growth inhibition; settings: exposure time: 5 days
Procedure, shortened: (§2)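 Tumour cell lines in log phase were plated in 384-well plates at 250–500 cells per well, then, after 24 hours, exposed continuously for five days to inhibitors at 0.5, 1, 5, 10, 50, 100, 500 and 1000 nM. Viability came from CellTiter-Glo luminescence, and surviving fraction is that signal normalised to the median of DMSO-only wells. Plates were read after 10 minutes at room temperature, and each line, screened three times, was kept only when replicate Pearson r was >0.7 and median Z' was >0.3.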

[4] = compound: CC(=O)c1c(C)c2cnc(Nc3ccc(N4CCNCC4)cn3)nc2n(C2CCCC2)c1=O; test: as above; settings: exposure time: 5 days
Procedure, shortened: as §2

YM155 = compound: COCC[n+]1c2c(n(Cc3cnccn3)c1C)C(=O)c1ccccc1C2=O [YM155]; test: as above; settings: exposure time: 5 days
Procedure, shortened: as §2

[5] = compound: CC(=O)NCC(=O)N1[C@@H]2CC[C@H]1c1ccc(Nc3ncc(C(F)(F)F)c(NC4CCC4)n3)cc12; test: as above; settings: exposure time: 5 days
Procedure, shortened: as §2

CAMPTOTHECIN = compound: CC[C@@]1(O)C(=O)OCc2c1cc1n(c2=O)Cc2cc3ccccc3nc2-1 [CAMPTOTHECIN]; test: as above; settings: exposure time: 5 days
Procedure, shortened: as §2

CARBOPLATIN = compound: O=C(O)C1(C(=O)O)CCC1.[NH2-].[NH2-].[Pt+2] [CARBOPLATIN]; test: as above; settings: exposure time: 5 days
Procedure, shortened: as §2

PACLITAXEL [6] = compound: T1, PACLITAXEL; test: as above; settings: exposure time: 5 days
Procedure, shortened: as §2

OSI-906 = compound: C[C@]1(O)C[C@@H](c2nc(-c3ccc4ccc(-c5ccccc5)nc4c3)c3c(N)nccn32)C1 [OSI-906]; test: as above; settings: exposure time: 5 days
Procedure, shortened: as §2

CELECOXIB = compound: Cc1ccc(-c2cc(C(F)(F)F)nn2-c2ccc(S(N)(=O)=O)cc2)cc1 [CELECOXIB]; test: as above; settings: exposure time: 5 days
Procedure, shortened: as §2

In the case of 143B BONE, the “area under dose-response curve” value [1] is reported as 3.53, the “area under dose-response curve” value [2] is reported as 2.93 and the “area under dose-response curve” value (PACLITAXEL [3]) is reported as 1.1. For the same test system, the surviving fraction (GEFITINIB; 0.5 nM) was 1.07 ± 0.023, the surviving fraction (GEFITINIB; 1 nM) was 1.08 ± 0.075 and the surviving fraction (GEFITINIB; 5 nM) was 1.11 ± 0.084. It also gave a surviving fraction (GEFITINIB; 10 nM) of 1.1 ± 0.033, a surviving fraction (GEFITINIB; 50 nM) of 1.14 ± 0.077 and a surviving fraction (GEFITINIB; 100 nM) of 1.12 ± 0.054. It also gave a surviving fraction (GEFITINIB; 500 nM) of 1.14 ± 0.11, a surviving fraction (GEFITINIB; 1000 nM) of 1.13 ± 0.15 and a surviving fraction ([4]; 0.5 nM) of 1.042 ± 0.0092. It also gave a surviving fraction ([4]; 1 nM) of 1.048 ± 0.0064, a surviving fraction ([4]; 5 nM) of 1.03 ± 0.021 and a surviving fraction ([4]; 10 nM) of 1.051 ± 0.0099. The surviving fraction ([4]; 50 nM) was 1.03 ± 0.046, the surviving fraction ([4]; 100 nM) was 1.043 ± 0.0099 and the surviving fraction ([4]; 500 nM) was 1.03 ± 0.027. It also gave a surviving fraction ([4]; 1000 nM) of 1.02 ± 0.027, a surviving fraction (YM155; 0.5 nM) of 0.89 ± 0.082 and a surviving fraction (YM155; 1 nM) of 0.987 ± 0.027. It also gave a surviving fraction (YM155; 5 nM) of 0.431, a surviving fraction (YM155; 10 nM) of 0.246 ± 0.042 and a surviving fraction (YM155; 50 nM) of 0.0735 ± 0.0064. For the same test system, the surviving fraction (YM155; 100 nM) was 0.0375 ± 0.0021, the surviving fraction (YM155; 500 nM) was 0.022 ± 0.0014 and the surviving fraction (YM155; 1000 nM) was 0.0265 ± 0.00071. It also gave a surviving fraction ([5]; 0.5 nM) of 0.98 ± 0.021, a surviving fraction ([5]; 1 nM) of 0.996 ± 0.013 and a surviving fraction ([5]; 5 nM) of 1.01 ± 0.026. For the same test system, the surviving fraction ([5]; 10 nM) was 0.966 ± 0.018, the surviving fraction ([5]; 50 nM) was 0.868 ± 0.0085 and the surviving fraction ([5]; 100 nM) was 0.928 ± 0.015. For the same test system, the surviving fraction ([5]; 500 nM) was 0.597 ± 0.039, the surviving fraction ([5]; 1000 nM) was 0.495 ± 0.056 and the surviving fraction (CAMPTOTHECIN; 0.5 nM) was 0.911 ± 0.076. The surviving fraction (CAMPTOTHECIN; 1 nM) was 0.9815 ± 0.00071, the surviving fraction (CAMPTOTHECIN; 5 nM) was 0.947 ± 0.025 and the surviving fraction (CAMPTOTHECIN; 10 nM) was 0.83 ± 0.07. It also gave a surviving fraction (CAMPTOTHECIN; 50 nM) of 0.12 ± 0.005, a surviving fraction (CAMPTOTHECIN; 100 nM) of 0.0595 ± 0.0064 and a surviving fraction (CAMPTOTHECIN; 500 nM) of 0.021. The surviving fraction (CAMPTOTHECIN; 1000 nM) was 0.0245 ± 0.00071, the surviving fraction (CARBOPLATIN; 0.5 nM) was 1.11 ± 0.099 and the surviving fraction (CARBOPLATIN; 1 nM) was 1.11 ± 0.083. The surviving fraction (CARBOPLATIN; 5 nM) was 1.13 ± 0.06, the surviving fraction (CARBOPLATIN; 10 nM) was 1.14 ± 0.097 and the surviving fraction (CARBOPLATIN; 50 nM) was 1.15 ± 0.15. For the same test system, the surviving fraction (CARBOPLATIN; 100 nM) was 1.13 ± 0.053, the surviving fraction (CARBOPLATIN; 500 nM) was 1.13 ± 0.11 and the surviving fraction (CARBOPLATIN; 1000 nM) was 1.12 ± 0.11. It also gave a surviving fraction (PACLITAXEL [6]; 0.5 nM) of 0.9755 ± 0.0078, a surviving fraction (PACLITAXEL [6]; 1 nM) of 0.99 ± 0.031 and a surviving fraction (PACLITAXEL [6]; 5 nM) of 0.424 ± 0.016. The surviving fraction (PACLITAXEL [6]; 10 nM) was 0.265 ± 0.018, the surviving fraction (PACLITAXEL [6]; 50 nM) was 0.134 ± 0.0099 and the surviving fraction (PACLITAXEL [6]; 100 nM) was 0.089 ± 0.013. For the same test system, the surviving fraction (PACLITAXEL [6]; 500 nM) was 0.0575 ± 0.0092, the surviving fraction (PACLITAXEL [6]; 1000 nM) was 0.0655 ± 0.0064 and the surviving fraction (OSI-906; 0.5 nM) was 1.02 ± 0.048. For the same test system, the surviving fraction (OSI-906; 1 nM) was 0.972 ± 0.028, the surviving fraction (OSI-906; 5 nM) was 1.07 ± 0.071 and the surviving fraction (OSI-906; 10 nM) was 1.04 ± 0.05. For the same test system, the surviving fraction (OSI-906; 50 nM) was 0.959 ± 0.083, the surviving fraction (OSI-906; 100 nM) was 0.99 ± 0.011 and the surviving fraction (OSI-906; 500 nM) was 0.9825 ± 0.0078. It also gave a surviving fraction (OSI-906; 1000 nM) of 0.989 ± 0.023, a surviving fraction (CELECOXIB; 0.5 nM) of 0.999 ± 0.011 and a surviving fraction (CELECOXIB; 1 nM) of 1.04 ± 0.03. The surviving fraction (CELECOXIB; 5 nM) was 1.07 ± 0.057, the surviving fraction (CELECOXIB; 10 nM) was 1.05 ± 0.0021 and the surviving fraction (CELECOXIB; 50 nM) was 1.08 ± 0.052. The surviving fraction (CELECOXIB; 100 nM) was 1.14 ± 0.072, the surviving fraction (CELECOXIB; 500 nM) was 1.08 ± 0.05 and the surviving fraction (CELECOXIB; 1000 nM) was 1.08 ± 0.033.
